Results from US4874780A, “Anticancer compounds” (Norsk Hydro a.s., priority 1987, dated 1989).
Entries after “also recorded” stand apart in the source; their conditions may differ. Counter-ions that a name gives are not always drawn. Like-named read-outs stand apart in the source and are kept apart here. One block for each molecule: values may come before it.

Legend:
NHIK 3025 cells [1] = assay: Cell survival (colony formation) after 24 hr treatment; format: cell-based; conditions: Homo sapiens, NHIK3025, 24 h
Description: (§1) Human cells of the established line NHIK 3025, originating from a cervical carcinoma in situ (Nordbye, K., and Oftebro, R. Exp. Cell Res., 58: 458, 1969), Oftebro, R., and Nordbye, K., Exp. Cell Res., 58: 459-460, 1969) were cultivated in Medium E2a (Puck, T.T. et al., J. Exp. Med., 106:145-165, 1957) supplemented with 20% human (prepared at the laboratory) and 10% horse serum (Grand Island Biological Co.). The cells are routinely grown as monolayers in tissue culture flasks.
(§2) The cells were kept in continuous exponential growth by frequent reculturing, i.e., every second and third day, and synchronized cell populations with a high degree of synchrony were obtained by repeated selection of mitotic cells (Pettersen, E. O. et al, Cell Tissue Kinet., 10: 511-522, 1977). During the synchronization procedure, the cells were kept in Medium E2a, and the whole experiment took place in a walk-in incubator at 37° C. Under growth conditions as used here, the NHIK 3025 cells have a medium cell-cycle time of ~18 hr, with medium G1, S1 and G2 durations of ~7, ~8, and ~2.5 hr, respectively.
For measurement of cell survival, appropriate numbers of cells were seeded in plastic Petri dishes (.phi.=5 cm). The number of cells seeded into each dish was adjusted such that the number of surviving cells would be approximately 150 per dish. While exponentially growing (asynchronous) cells were trypsinized before seeding, synchronized cells were seeded immediately after selection. After about 2 hr, the cells had attached to the bottom of the dishes, and the treatment was started by replacing the medium with medium containing the appropriate drug concentration. After the desired time of treatment, the drug-containing medium was removed, and fresh medium was added. The dishes were rinsed once with the same medium as was to be added on addition or removal of drug. After 10 to 12 days at 37° C. in a CO2 incubator, the cells were fixed in ethanol and stained with methylene blue before the colonies were counted.
The cytotoxic effect of benzaldehyde and of deuterobenzaldehyde-d1 was tested on asynchronous, exponentially growing NHIK 3025 cells by counting the number of cells able to form colonies after 24 hr treatment in Petri dishes. In Table 1 the results represent 2 different, independent experiments where the numbers give the mean fraction of surviving cells from 10 parallel dishes (± standard error).
Fraction of cells surviving 24 hr treatment with benzaldehyde or deuterobenzaldehyde - d1 in Petri dishes. (The values represent the mean±standard error from 10 different dishes.)

NHIK 3025 cells [2] = assay: Protein synthesis rate ((3H)valine incorporation); format: cell-based, human; conditions: 3.2 mM
Description: as §1, §2
The rate of protein synthesis was calculated as described previously (Ronning, O. W. et al., J. Cell Physiol., 107: 47-57, 1981). Briefly, cellular protein was labeled to saturation during a 2-day preincubation with (^14 C)valine of constant specific radioactivity (0.5 Ci/mol) prior to the experiment. This was achieved by using a high concentration of valine so that the dilution of (^14 C)valine by intracellular valine and by proteolytically generated valine will be negligible (Ronning, O. W., et al. Exp. Cell Res. 123: 63-72, 1979), thus keeping the specific radioactivity at a constant level. The rate of protein synthesis was calculated from the incorporation of (3H)valine of constant specific activity. The incorporation measurements were related to the total of (^14 C) radioactivity in protein at the beginning of the respective measurement periods and expressed as the percentage per hr (Ronning, O. W. et al, J. Cell, Physiol. 107: 47-57, 1981).
[…] The last measurements were done to test the reversibility of the drugs. Drug concentration: 3.2 mM.

[3] = Concentration of BG or BG-d1 in blood samples after iv injection (HPLC); format: in vivo, male Wistar rats; conditions: rat, iv
Protocol: Measurement of concentration of 4,6-O-benzylidene-D-glucose (BG) or 4,6-O-deuterobenzylidene-d1 -D-glucose (BG-d1) in blood samples (Table 5).
(§3) Blood samples were taken from male Wistar rats immediately before and at several intervals after intravenous injection of BG or BG-d1. Blood serum was separated by centrifugation. Equal amounts of blood serum and HPLC-grade acetonitrile were mixed and centrifuged at 13,000 rpm (15,000×g) for 5 minutes. Samples were then analyzed for BG or BG-d1 content by High Performance Liquid Chromatography (HPLC). Samples were placed in an autosampler programmed for replicate injections of […] each onto a 4.6×250 mm LC18 HPLC column. The column was eluted with 45% aqueous methanol delivered at 1 ml/min. BG or BG-d1 were detected by using a spectrofluorometer set at excitation and emission wavelengths of 255 and 283 nm, respectively. The slit width used was 10 nm. Quantitation of the amount of BG or BG-d1 in serum samples was performed with an electronic integrator calibrated with standard solutions of BG or BG-d1 in the mobile phase (Pettersen et al., Anticancer Res., 6; 147-152, 1986).
We have compared the metabolism in rats of BG as well as of deuterated BG (BG-d1). In Table 5 the serum concentration of BG or BG-d1 is shown at various time points after a single iv injection of each drug, respectively.

[4] = BG or BG-d1 metabolites in blood samples after iv injection (HPLC peak height); format: in vivo, male Wistar rats; conditions: rat, iv, BG versus BG-d1
Protocol: as §3
Measurement of BG or BG-d1 metabolites in blood samples (Table 6)
HPLC of blood samples was performed as indicated above. Relative amounts of BG- or BG-d1 -metabolite were determined by peak height analysis. The peak height from the electronic integrator (in microvolts) of samples taken 30 minutes after iv injection of BG, or 60 minutes after iv injection of BG-d1 were normalized to 1. All other metabolite peaks were compared with these values.
At the same time as BG or BG-d1 metabolism was being determined, a separate metabolite peak appeared in HPLC chromatograms. The increase in BG- and BG-d1 -metabolite and subsequent clearance was measured.

NHIK 3025 cells [5] = assay: Duration of cell cycle-time of synchronized cells; format: cell-based, human; conditions: 8 hr treatment
Description: as §1, §2
(§4) For detection of the drug effects on cell-cycle kinetics, the same methods were used as described previously (Lindmo, T., and Pettersen, E. O., Cell Tissue Kinet., 12: 43-57, 1979), (Pettersen, E. O. et al, Eur. J. Cancer Clin. Oncol., 19: 507-514; 1983), (Ronning, O.W. et al., J. Cell. Physiol., 109: 411-419, 1981). Briefly, the selected mitotic cells were seeded into 8 tissue culture flasks (25 sq cm) 5000 cells per flask. The cells divided within 1 hr and attached as doublets to the bottom of the flasks. […] Analyses of durations of mitosis were performed from these observations (Table 4).
This is shown by the data in Table 3, where we have used synchronized cells treated over an 8 hr period starting 2 hr after mitotic selection, i.e. when the cells were in early Gl.

NHIK 3025 cells [6] = assay: Duration of mitosis of synchronized cells; format: cell-based, human; conditions: 3.2 mM during mitosis
Description: as §1, §2, §4
This effect is probably directly related to the aldehyde group (Pettersen et al. Cancer Res. 45: 2085-2091, 1985). If the deuterated aldehyde group induces different biological effects from the undeuterated one it is therefore good reason to expect this to be expressed as a difference in effect on cells in mitosis. In Table 4 results are shown on prolongation of mitosis of synchronized cells treated with benzaldehyde or deuterobenzaldehyde-d1 during mitosis. The numbers in the table represent the percentage of the cells having a duration of mitosis below 1 hr (which is normal for untreated cells) or above the number of hours indicated on top of each column.

[7] = Solubility in water, pH of solution and stability of benzylidene ascorbic acid compounds; format: physicochemical; conditions: for Stability (in words): free acid compared with mono-basic salt
Description: The structural formula is shown below. The structure has been confirmed by IR and NMR. […] The pH of the solution is 6.6. [drawing 8] The beneficial properties of the drug composition according to the present invention are illustrated below in connection with a series of experiments which have been performed.

[8] = read-out: Cell survival of cells treated for 24 hr
[9] = read-out: Fraction of cells surviving 24 hr treatment

concentration at 0 h ([3]; serum, 0 minutes (estimated), read-out: Amount of unmetabolized drug in blood samples): 345 µM | concentration at 2 min ([3]; serum, 2 minutes, read-out: Amount of unmetabolized drug in blood samples): 220 ± 20 µM | concentration at 5 min ([3]; serum, 5 minutes, read-out: Amount of unmetabolized drug in blood samples): 160 ± 20 µM | concentration at 10 min ([3]; serum, 10 minutes, read-out: Amount of unmetabolized drug in blood samples): 140 ± 20 µM | concentration at 0.25 h ([3]; serum, 15 minutes, read-out: Amount of unmetabolized drug in blood samples): 100 ± 20 µM | concentration at 20 min ([3]; serum, 20 minutes, read-out: Amount of unmetabolized drug in blood samples): 97 ± 3 µM | concentration at 0.5 h ([3]; serum, 30 minutes, read-out: Amount of unmetabolized drug in blood samples): 66 ± 15 µM | concentration at 1 h ([3]; serum, 60 minutes, N.F. = Not Found, read-out: Amount of unmetabolized drug in blood samples): 10 ± 5 µM | half-life ([3]; serum, read-out: half-life in vivo): ~15 min
Compound: [2H]C1(c2ccccc2)OC[C@H]2OC(O)[C@H](O)[C@@H](O)[C@@H]2O1 (stereo partly drawn) [BG-d1, 4,6-O-deuterobenzylidene-d1 -D-glucose]
viability at 6400 µM (NHIK 3025 cells [1]; [8]): 33 ± 7% | viability at 12800 µM (NHIK 3025 cells [1]; [8]): 0.8 ± 0.3% | Protein synthesis (NHIK 3025 cells [2]; asynchronous cells, 3 hr treatment, pulse 0-1 hr, during treatment, Table 8, control 5.7 ± 0.5): 3.0 ± 0.3 %/hr | Protein synthesis (NHIK 3025 cells [2]; asynchronous cells, 3 hr treatment, pulse 2-3 hr, during treatment, Table 8, control 5.7 ± 0.5): 3.4 ± 0.3 %/hr | Protein synthesis (NHIK 3025 cells [2]; synchronized cells, 22 hr treatment, pulse 21-22 hr, during treatment, Table 8, control 5.3 ± 0.2): 4.6 ± 0.2 %/hr | Protein synthesis (NHIK 3025 cells [2]; synchronized cells, 22 hr treatment, pulse 23-24 hr, after treatment, Table 8, control 5.3 ± 0.2): 5.4 ± 0.1 %/hr | Metabolism and clearance from serum (in words) ([3]; compared with BG): slower than that of the undeuterated compound; also recorded: clearly slower metabolism and clearance from serum | Clearance (or further metabolization) of metabolite (in words) [4]: slower clearance kinetics than that formed from BG

Compound: [2H]C(=O)c1ccccc1 [Deuterobenzaldehyde-d1]
viability at 3200 µM (NHIK 3025 cells [1]; [9]): 68 ± 14% | viability at 12800 µM (NHIK 3025 cells [1]; [9]): 0.56 ± 0.2% | Prolongation (NHIK 3025 cells [5]; 2 mM, versus control 1): 15.2% | Duration of the part of the cell cycle starting 2 hr after selection (NHIK 3025 cells [5]; 2 mM, control 1 16.5): 19.0 | Prolongation (NHIK 3025 cells [5]; 2.5 mM, versus control 2): 108.3% | Duration of the part of the cell cycle starting 2 hr after selection (NHIK 3025 cells [5]; 2.5 mM, control 2 16.8): 35.0 | Protein synthesis (NHIK 3025 cells [2]; 4 hr treatment, pulse 0-1, during treatment, Table 2, control 6.8 ± 0.9): 3.6 ± 0.3 %/hr | Protein synthesis (NHIK 3025 cells [2]; 4 hr treatment, pulse 4-5, after treatment, Table 2, control 6.8 ± 0.9): 4.7 ± 0.3 %/hr | Protein synthesis (NHIK 3025 cells [2]; 4 hr treatment, pulse 5-6, after treatment, Table 2, control 6.8 ± 0.9): 5.8 ± 0.3 %/hr | Percentage of cells with duration of mitosis >4 h (NHIK 3025 cells [6]): 70% | Percentage of cells with duration of mitosis >5 h (NHIK 3025 cells [6]): 69% | Percentage of cells with duration of mitosis >6 h (NHIK 3025 cells [6]): 64% | Percentage of cells with duration of mitosis >3 h (NHIK 3025 cells [6]; control 2%): 74% | Percentage of cells with duration of mitosis >2 h (NHIK 3025 cells [6]; control 4%): 81% | Percentage of cells with duration of mitosis >1 h (NHIK 3025 cells [6]; control 17%): 87% | Percentage of cells with duration of mitosis <1 h (NHIK 3025 cells [6]; control 83%): 13%

Stability (in words) [7]: instability
Compound: [2H]C1(c2ccccc2)OC[C@@H]([C@H]2OC(=O)C(O)=C2O)O1 (stereo partly drawn) [deutero 5,6-O-benzylidene ascorbic acid, deutero 5,6-O-benzylidene-L-ascorbic acid]

pH of the solution ([7]; aqueous solution of mono-sodium salt): 6.6 | Stability (in words) [7]: much more stable | Solubility in water ([7]; water): readily soluble in water
Compound: [2H]C1(c2ccccc2)OC[C@@H]([C@H]2OC(=O)C(O)=C2O)O1 (stereo partly drawn) [mono-sodium salt of deutero 5,6-O-benzylidene-L-ascorbic aci] [mono-sodium salt of deutero 5,6-O-benzylidene-L-ascorbic acid]
